Laboratory results from patent US10287267B2, “Isoquinolin-3-yl carboxamides and preparation and use thereof” (Samumed, LLC, priority 2016, dated 2019).
One block for each compound: values may come before it.

Tests used:
[1] = target: recombinant DYRK1A kinase (Homo sapiens (Human), UniProt Q13627); assay: DYRK1A kinase assay (Ser/Thr 18 peptide Z-lyte FRET); assay type: biochemical; conditions: 30 μM ATP, 1 h room temperature;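 note: Read-out is the coumarin to fluorescein emission ratio, referenced to unphosphorylated (0%) and phosphorylated (100%) Ser/Thr 18 peptide controls, values from dose-response curves by non-linear regression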
IL-6 = IL-6 inhibition in LPS-stimulated human peripheral blood mononuclear cells (HTRF); assay type: cell-based; conditions: Homo sapiens, PBMC; for EC50: Table 9, huPBMCs, LPS 50 ng/mL, 22 hours, dose-response starting from 10 μM; for inhibition at 10 µM: read-out: percent value in parentheses beside EC50 >10 μM;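 for all read-outs here: IL-6 detected by HTRF with an XL665- and Cryptate-labelled anti-IL-6 antibody pair, samples run in duplicate, EC50 obtained from a four-parameter Levenberg-Marquardt curve fit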
Protocol: After 22 hour incubation, a mixture of anti-IL6 XL665 and anti-IL-6 Cryptate diluted in reconstitution buffer (Catalog #62IL6PEC, Cisbio Inc., Bedford, Mass.) was added to each well. […] All samples were processed in duplicate. […] EC50 was determined using software generated by Dotmatics Limited (Windhill Bishops Stortford Herts, UK) using the Levenberg-Marquardt 4 parameter fitting procedure with finite different gradients.

[2] = tested on: Tau phosphorylation at Ser396 (pSer396); assay: Tau phosphorylation assay (pSer396 ELISA / western blot) in SH-SY5Y cells; assay type: cell-based, human; conditions: Homo sapiens; SH-SY5Y cells, overnight (16-18 h) exposure; read-out: pSer396 Tau EC50;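 note: EC50 for reduction of Tau pSer396 in lysed cells, measured by colorimetric ELISA or chemiluminescent western blot, both using the same pSer396 antibody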
[3] = tested on: α-smooth muscle actin (αSMA) positive LL29 cells; assay: Inhibition of fibrotic process: αSMA in TGF-β1 treated primary human fibroblasts from IPF patients; assay type: cell-based; conditions: Homo sapiens, Fibroblast; for EC50: 96 h, Table 8, LL29 fibroblasts from IPF patients, TGF-β1 20 ng/mL, 4 days, dose-response 10 μM to 0.94 nM; for inhibition at 10 µM: read-out: percent value in parentheses beside EC50 >10 μM;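 for all read-outs here: controls were TGF-β1 stimulated wells with DMSO vehicle (positive) and cells given DMSO alone (negative), cultured in F12 medium with 1% fetal bovine serum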
recombinant GSK3β kinase = recombinant GSK3β kinase (Homo sapiens (Human), UniProt P49841); assay: GSK3β kinase assay (Ser/Thr 09 peptide Z-lyte FRET); assay type: biochemical; conditions: 46 μM ATP, 1 h room temperature;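 note: kinase activity read as coumarin to fluorescein emission ratio, 11-point threefold dilutions from 10 µM to 0.0003 µM in duplicate, unphosphorylated and phosphorylated peptide as 0% and 100% controls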
[4] = tested on: Wnt pathway (Sp5-Luc reporter, TCF/LEF binding sites) in SW480 colon carcinoma cells; assay: Screening assay for Wnt activity: Sp5-Luc reporter gene assay; assay type: cell-based, human; conditions: Homo sapiens; for EC50: Sp5-Luc reporter, SW480 cells, 36 to 48 hours; for inhibition at 10 µM: SW480, read-out: percent inhibition at 10 μM;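 for all read-outs here: firefly luciferase luminescence read in stably transduced SW480 cells carrying the Sp5 promoter reporter with eight TCF/LEF sites, compounds given in 0.1% DMSO final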
Protocol: The screening assay for Wnt activity is described as follows.
Following incubation, 15 μl of BriteLite Plus luminescence reagent (Perkin Elmer) was added to each well of the 384-well assay plates. The plates were placed on an orbital shaker for 2 min and then luminescence was quantified using the Envision (Perkin Elmer) plate reader.

[5] = tested on: SW480 colon carcinoma cells; assay: Cell viability assay (CellTiter-Glo); assay type: cell-based, human; conditions: Homo sapiens; for EC50: 96 h, SW480 cells, CellTiter-Glo, four days incubation; for inhibition at 10 µM: SW480, read-out: percent inhibition at 10 μM

Sequence of recombinant GSK3β kinase (P49841 whole entry): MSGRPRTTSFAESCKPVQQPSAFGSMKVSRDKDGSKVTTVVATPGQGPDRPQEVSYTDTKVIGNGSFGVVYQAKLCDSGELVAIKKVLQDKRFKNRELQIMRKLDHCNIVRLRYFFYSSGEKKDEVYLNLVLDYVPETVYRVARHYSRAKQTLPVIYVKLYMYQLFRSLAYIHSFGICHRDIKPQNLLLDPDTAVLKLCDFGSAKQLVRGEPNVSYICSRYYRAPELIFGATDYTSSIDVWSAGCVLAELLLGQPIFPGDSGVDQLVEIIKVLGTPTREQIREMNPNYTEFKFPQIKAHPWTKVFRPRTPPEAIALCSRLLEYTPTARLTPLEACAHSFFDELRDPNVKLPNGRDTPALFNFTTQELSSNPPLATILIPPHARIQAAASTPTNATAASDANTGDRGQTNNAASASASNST

SMILES: Cn1ncc(-c2ccc3cnc(NC(=O)[C@H]4CCCN4)cc3c2)c1CN1CCCCC1 [Compound 803, (R)—N-(6-(1-Methyl-5-(piperidin-1-ylmethyl)-1H-pyrazol-4-yl)isoquinolin-3-yl)pyrrolidine-2-carboxamide]
EC50 [1]: 12.6 nM
EC50 (IL-6): 3320 nM
EC50 [2]: 3700 nM
EC50 [3]: > 10000 nM
inhibition at 10 µM [3]: 27.8%
EC50 (recombinant GSK3β kinase): 164 nM
EC50 [4]: 3550 nM
EC50 [5]: 4530 nM

SMILES: CC(C)CN1CCC(C(=O)Nc2cc3cc(-c4cnn(C)c4CN4CCCCC4)ccc3cn2)CC1 [Compound 822, 1-isobutyl-N-(6-(1-methyl-5-(piperidin-1-ylmethyl)-1H-pyrazol-4-yl)isoquinolin-3-yl)piperidine-4-carboxamide]
EC50 [1]: 4.1 nM
EC50 (IL-6): 3260 nM
EC50 [2]: 247 nM
EC50 [3]: 212 nM
EC50 (recombinant GSK3β kinase): 9 nM
EC50 [4]: 517 nM
EC50 [5]: 708 nM

SMILES: Cn1ncc(-c2ccc3cnc(NC(=O)C4CCN(C5COC5)CC4)cc3c2)c1CN1CCCCC1 [Compound 826, N-(6-(1-Methyl-5-(piperidin-1-ylmethyl)-1H-pyrazol-4-yl)isoquinolin-3-yl)-1-(oxetan-3-yl)piperidine-4-carboxamide]
EC50 [1]: 3.9 nM
EC50 (IL-6): 3290 nM
EC50 [2]: 568 nM
EC50 [3]: 149 nM
EC50 (recombinant GSK3β kinase): 7 nM
EC50 [4]: 603 nM
EC50 [5]: 897 nM

SMILES: Cn1ncc(-c2ccc3cnc(NC(=O)C4CCN(C(=O)c5ccccc5)CC4)cc3c2)c1CN1CCCCC1 [Compound 831, 1-Benzoyl-N-(6-(1-methyl-5-(piperidin-1-ylmethyl)-1H-pyrazol-4-yl)isoquinolin-3-yl)piperidine-4-carboxamide]
EC50 [1]: 3.2 nM
EC50 (IL-6): 812 nM
EC50 [2]: 189 nM
EC50 [3]: 244 nM
EC50 (recombinant GSK3β kinase): 10 nM
EC50 [4]: 706 nM
EC50 [5]: 911 nM

EC50 [1]: 5010 nM
EC50 (IL-6): > 10000 nM
EC50 [2]: 350 nM
EC50 (recombinant GSK3β kinase): 5000 nM
EC50 [4]: > 10000 nM
EC50 [5]: > 10000 nM
SMILES: CC1CCN(CC(=O)Nc2cc3cc(-c4cnn(C)c4CN4CCCCC4)ccc3cn2)CC1 [Compound 851, N-(6-(1-Methyl-5-(piperidin-1-ylmethyl)-1H-pyrazol-4-yl)isoquinolin-3-yl)-2-(4-methylpiperidin-1-yl)acetamide]
inhibition at 10 µM (IL-6): 2.9%
EC50 [3]: 692 nM
inhibition at 10 µM [4]: 6.4%
inhibition at 10 µM [5]: 30.4%

EC50 [1]: 8.9 nM
EC50 (IL-6): > 10000 nM
EC50 [2]: 1100 nM
EC50 (recombinant GSK3β kinase): 76 nM
EC50 [4]: > 10000 nM
EC50 [5]: > 10000 nM
SMILES: Cc1nnc(-c2ccc3cnc(NC(=O)C4(F)CCCCC4)cc3c2)s1 [Compound 883, 1-Fluoro-N-(6-(5-methyl-1,3,4-thiadiazol-2-yl)isoquinolin-3-yl)cyclohexane-1-carboxamide]
inhibition at 10 µM (IL-6): 9.1%
EC50 [3]: > 10000 nM
inhibition at 10 µM [3]: 14%
inhibition at 10 µM [4]: 43.2%
inhibition at 10 µM [5]: 35.5%

SMILES: CO[C@H]1CC[C@H](C(=O)Nc2cc3cc(-c4nnc(C)s4)ccc3cn2)CC1 [Compound 885, trans-4-Methoxy-N-(6-(5-methyl-1,3,4-thiadiazol-2-yl)isoquinolin-3-yl) cyclohexane-1-carboxamide]
EC50 [1]: 34.6 nM
inhibition at 10 µM (IL-6): 7%
EC50 (IL-6): > 10000 nM
EC50 [2]: 878 nM
EC50 [3]: 2620 nM
EC50 (recombinant GSK3β kinase): 46 nM
EC50 [4]: 4480 nM
EC50 [5]: 7720 nM

SMILES: Cc1nnc(-c2ccc3cnc(NC(=O)C4CCN(CCF)CC4)cc3c2)s1 [Compound 900, 1-(2-Fluoroethyl)-N-(6-(5-methyl-1,3,4-thiadiazol-2-yl)isoquinolin-3-yl) piperidine-4-carboxamide]
EC50 [1]: 2.9 nM
EC50 (IL-6): 9860 nM
EC50 [2]: 180 nM
EC50 [3]: 449 nM
EC50 (recombinant GSK3β kinase): 11 nM
EC50 [4]: 1010 nM
EC50 [5]: 3880 nM

SMILES: Cc1nnc(-c2ccc3cnc(NC(=O)C4CCN(C(=O)c5ccccc5)CC4)cc3c2)s1 [Compound 921, 1-Benzoyl-N-(6-(5-methyl-1,3,4-thiadiazol-2-yl)isoquinolin-3-yl)piperidine-4-carboxamide]
EC50 [1]: 2.1 nM
inhibition at 10 µM (IL-6): 9.9%
EC50 (IL-6): > 10000 nM
EC50 [2]: 109 nM
EC50 [3]: 75 nM
EC50 (recombinant GSK3β kinase): 5 nM
EC50 [4]: 779 nM
EC50 [5]: 1620 nM

SMILES: Cc1nnc(-c2ccc3cnc(NC(=O)CN4CCCC4)cc3c2)s1 [Compound 932, N-(6-(5-Methyl-1,3,4-thiadiazol-2-yl)isoquinolin-3-yl)-2-(pyrrolidin-1-yl) acetamide]
EC50 [1]: 16.9 nM
inhibition at 10 µM (IL-6): 7.5%
EC50 (IL-6): > 10000 nM
EC50 [2]: 357 nM
EC50 [3]: 594 nM
EC50 (recombinant GSK3β kinase): 14 nM
EC50 [4]: 946 nM
EC50 [5]: 5450 nM

SMILES: Cc1nnc(-c2ccc3cnc(NC(=O)CN4CCCCC4)cc3c2)s1 [Compound 939, N-(6-(5-Methyl-1,3,4-thiadiazol-2-yl)isoquinolin-3-yl)-2-(piperidin-1-yl) acetamide]
EC50 [1]: 13.9 nM
inhibition at 10 µM (IL-6): 3.6%
EC50 (IL-6): > 10000 nM
EC50 [2]: 274 nM
EC50 [3]: 1140 nM
EC50 (recombinant GSK3β kinase): 13 nM
EC50 [4]: 2070 nM
EC50 [5]: > 10000 nM
inhibition at 10 µM [5]: 31.6%

SMILES: Cc1nnc(-c2ccc3cnc(NC(=O)CN4CCN(C)CC4)cc3c2)s1 [Compound 946, N-(6-(5-Methyl-1,3,4-thiadiazol-2-yl)isoquinolin-3-yl)-2-(4-methylpiperazin-1-yl)acetamide]
EC50 [1]: 23 nM
inhibition at 10 µM (IL-6): 18.2%
EC50 (IL-6): > 10000 nM
EC50 [2]: 571 nM
EC50 [3]: 970 nM
EC50 (recombinant GSK3β kinase): 38 nM
EC50 [4]: 1880 nM
EC50 [5]: > 10000 nM
inhibition at 10 µM [5]: 42.6%

SMILES: Cc1nnc(-c2ccc3cnc(NC(=O)CN4CCOCC4)cc3c2)s1 [Compound 952, N-(6-(5-Methyl-1,3,4-thiadiazol-2-yl)isoquinolin-3-yl)-2-morpholinoacetamide]
EC50 [1]: 7.2 nM
inhibition at 10 µM (IL-6): 10.1%
EC50 (IL-6): > 10000 nM
EC50 [2]: 269 nM
EC50 [3]: 741 nM
EC50 (recombinant GSK3β kinase): 8 nM
EC50 [4]: 1470 nM
EC50 [5]: 7090 nM

SMILES: Cc1nnc(-c2ccc3cnc(NC(=O)CN4C[C@H]5C[C@@H]4CO5)cc3c2)s1 [Compound 960, 2-((1R,4R)-2-Oxa-5-azabicyclo[2.2.1]heptan-5-yl)-N-(6-(5-methyl-1,3,4-thiadiazol-2-yl)isoquinolin-3-yl)acetamide]
EC50 [1]: 17.1 nM
inhibition at 10 µM (IL-6): 8.2%
EC50 (IL-6): > 10000 nM
EC50 [2]: 233 nM
EC50 [3]: 957 nM
EC50 (recombinant GSK3β kinase): 15 nM
EC50 [4]: 1660 nM
EC50 [5]: 6670 nM

SMILES: Cc1nnc(-c2cc(F)c3cnc(NC(=O)CN4CCOCC4)cc3c2)s1 [Compound 963, N-(8-Fluoro-6-(5-methyl-1,3,4-thiadiazol-2-yl)isoquinolin-3-yl)-2-morpholinoacetamide]
EC50 [1]: 26.7 nM
inhibition at 10 µM (IL-6): 8.2%
EC50 (IL-6): > 10000 nM
EC50 [2]: 252 nM
EC50 [3]: 1190 nM
EC50 (recombinant GSK3β kinase): 6 nM
EC50 [4]: 1200 nM
EC50 [5]: > 10000 nM
inhibition at 10 µM [5]: 49.2%

SMILES: Cn1cc(-c2ccc3cnc(NC(=O)C4CCN(S(=O)(=O)c5ccccc5)CC4)cc3c2)cn1 [Compound 964, N-(6-(1-Methyl-1H-pyrazol-4-yl)isoquinolin-3-yl)-1-(phenylsulfonyl) piperidine-4-carboxamide]
EC50 [1]: 5.2 nM
inhibition at 10 µM (IL-6): 6.8%
EC50 (IL-6): > 10000 nM
EC50 [2]: 576 nM
EC50 [3]: > 10000 nM
inhibition at 10 µM [3]: 19.7%
EC50 (recombinant GSK3β kinase): 102 nM
EC50 [4]: 1450 nM
EC50 [5]: 3830 nM
